What was measured:
Cortical neurons = assay: Cisplatin Killing of Cortical Neurons; format: cell-based, Sprague-Dawley rats
Procedure: Cortical neurons were harvested from day E18 female Sprague-Dawley rats, plated on Poly-L-Lycine coated plates and incubated for 14 days at 37° C. under 5% CO2. […]

CGNs [1] = assay: Cisplatin Killing of CGNs; format: cell-based, CD1 mice
Procedure: Cisplatin has been used extensively in the treatment of various cancers. One dosblimiting side effect of this chemotherapeutic agent is related to hearing loss as a result of its toxicity to auditory neurons and loss of feeling in the extremities. Cisplatin induces apoptosis to both cultured CGN and cortical neurons.
CGNs were harvested from day 8/9 post-natal CD1 mice, plated on Poly-D-Lycine coated plates and incubated for 6 days at 37° C. under 5% CO2. The cells were treated with media containing drug and cisplatin […].

[2] = tested on: OV 2008 ovarian cancer cells; assay: Cisplatin induced apoptosis of OV 2008 ovarian cancer cells; format: cell-based; conditions: cisplatin (20 μg/mL)
Excerpt: Regardless of its neuroprotective capability, if a compound interferes with chemotherapy by protecting cancer cells from an apoptotic stimuli then the compound is of less value as an anti-cancer therapeutic.

[3] = tested on: rat spinal cord ex-plants; assay: Spinal Cord Explant neurite extension; format: cell-based; conditions: 3 μM; ex-plants on growth inhibitory substrates
Excerpt: The inability of neurites to regenerate or overcome stimuli which inhibit or prevent the formation of normal neuritic extensions and connections is characteristic of the conditions found in spinal cord and related injuries, AD and the like. Select compounds of this invention promote the formation of neuritic extension in spinal cord ex-plants which have been cultured on growth inhibitory substrates.
Spinal cords from P1 rat pups were isolated for neurite extension analysis. Lumbar cord was separated in two along the spinal canal. […] lateral sections were obtained with a McIlwain tissue chopper. Slices were cultured in poly L-lysine coated 24 well plates in Neurobasal media supplemented with B27, penicillin, streptomycin, and glutamate. Test compounds were added to the media and neurite extension out of the explant onto the poly L-coated plastic was assessed after 7 days in culture. Neurites were visualized either by phase contrast microscopy or by beta 3 tubulin immunofluorescence.

CGNs [4] = assay: Ceramide Killing of CGNs; format: cell-based, CD1 mice; conditions: ceramide 100 uM
Excerpt: Ceramide is a native […] found in most mammalian and human cells. The upregulation of endogenous ceramide has been linked to caspase 1 (ICE) induced apoptosis (Suzuki, A. et al. Exp. Cel. Res., 1997, 233, 41). In a similar fashion, the addition of ceramide to cultured CGNs results in caspase induced apoptosis, and is therefore considered an effective in vitro model for the various neurodegenerative diseases described above, which are characterized by caspase induced apoptosis, as observed in stroke models. Addition of selected compounds of the formula I through III, 24 hours prior to the addition of ceramide, to cultured CGNs provided protection against apoptosis, with 10 to 20% of the cells being saved at 1–10 μM drug concentrations (see Example 114).
CGNs were harvested from day 8/9 post-natal CD1 mice, plated on Poly-D-Lycine coated plates and incubated for 6 days at 37° C. under 5% CO2. Cells were pretreated with drug 24 hours prior to ceramide (100 uM) and drug addition.

Caspase 3 = Caspase 3 induction during HK/LK killing of CGNs; format: cell-based, CD1 mice
Excerpt: Caspase 3 induction ultimately leads to cell death and is observed in any number of neurodegenerative diseases. Compounds which inhibit caspase 3 induction represent potent therapies for various neurodegenerative diseases.

CGNs [5] = assay: β-Amyloid Aggregation Assay in CGNs; format: cell-based; conditions: for IC50: Aβ 25 μM, assayed 5 days after Aβ addition
Excerpt: Various mechanisms have been put forward in order to account for the neurotoxicity related to extracellular Aβ fibril formation. […] Regardless of the mode of action, extracellular Aβ fibril formation acts as an effective apoptotic trigger for neuronal cells and serves as an in vitro model for various neurodegenerative diseases characterized by extracellular protein fibril formation, typified by diseases such as AD and PD.
CGNs were harvested from day 8/9 post-natal CD1 mice, plated on Poly-D-Lycine coated plates and incubated for 6 days at 37° C. under 5% CO2. Pretreated cells were treated with drug 24 hours prior to A-β (25 μM) and drug addition.

SCG neurons = assay: NGF Withdrawal Killing of SCG Neurons; format: cell-based, Sprague-Dawley rats; conditions: Rattus norvegicus, Neuron, assayed 48 hours after drug
Excerpt: Cultured Superiour Cervical Ganglion (SCG) neurons of the PNS which have been sustained in media containing Neuron Growth Factor (NGF) undergo apoptotic cell death upon removal of the NGF from the cellular medium. Loss of neuronal trofin support has been implicated in various neurodegenerative disease states in the PNS, such as diabetic neuropathy and neuropahies related to chemotherapeutic and anti-HIV drug treatment.
SCG neurons were harvested from day 1 post natal Sprague-Dawley rats, plated on collagen coated plates and incubated for 5 days in the presence of 50 ng/mL NGF at 37° C. under 5% CO2. The cells were washed with NGF free media, 4 times at 1 hour intervals, at which time drug was added.

CGNs [6] = assay: High/Low Potassium (HK/LK) assay in CGNs; format: cell-based; conditions: for IC50: Mus musculus, HK/LK switch, drug 24 h pre-treatment, assayed 16 h after media change, concentration at which cell death was inhibited by 50%
Procedure: Cultured CGNs which are maintained in a medium containing 26 mM potassium (high K^+ or HK) undergo cell death when the medium is changed to one containing 5 mM potassium (low K^+ or LK). HK maintains the cells in a highly polarized state, duplicating that of fully innervated neurons. The switch to LK (5 mM is more representative of physiological conditions) results in depolarization of the cells, mimicking the loss of neuronal conductivity. […] As these killer genes are turned on by various types of neuronal insult as observed in AD, PD, and stroke, HK/LK is a general in vitro model for neuronal degradation, blanketing a wide range of neurodegenerative diseases. Compounds that protect against HK/LK in CGNs would therefore be efficacious in treatment and/or prevention of various neurodegenerative disease states.
CGNs were harvested from day 8/9 post-natal CD1 mice, plated on Poly-D-Lycine coated plates and incubated for 6 days at 37° C., with […] potassium, under 5% CO2. Pretreated cells were treated with drug 24 hours prior to changing the media to one containing […] potassium and drug. Cells were assayed 16 hours after the final media change using cell TITER96 (Promega).

SHSY-5Y cells = assay: Etoposide Killing of SHSY-5Y; format: cell-based; conditions: etoposide 32 uM, drug 1 μM
Procedure: SHSY-5Y cells were grown in growth media. Cells are placed at 50,000 cells per 96 well. Four days latter the cells were treated with drug for 48 hours prior to etoposide (32 uM) treatment. On day 6 media was changed to that containing etoposide and drug for 4 hours, at which point the media was changed to media containing drug only. Cells are allowed to survive overnight and then assessed for viability with metabolic activity measured (WST-1-Beohringer Mannheime), as shown in TABLE 13.

CGNs [7] = assay: Glutamate Killing of CGNs; format: cell-based, CD1 mice; conditions: glutamate 100 uM
Excerpt: Glutaminergic neurons secrete the neurotransmitter glutamate as a part of normal cell signaling processes. Intracellular glutamate levels are regulated by glial cell uptake and conversion to glutamine. Under conditions of oxidative stress, as observed in various neurodegenerative diseases such as stroke, ALS, PD, and HD, glutaminergic neurons release massive amounts of glutamate into the […] fluid, overwhelming the surrounding cells. Stimulation of both NMDA and non NMDA-type glutamate excitory receptors leads to sustained depolarization of postsynaptic dendrosomal membranes, increased membrane permeability, and impaired ion homeostasis, all leading to either apoptotic or necrotic cell death.
CGNs were harvested from day 8/9 post-natal CD1 mice, plated on Poly-D-Lycine coated plates and incubated for 6 days at 37° C. under 5% CO2. Cells were pretreated with drug 24 hours prior to glutamate (100 uM) and drug addition.

O=C1NC(=O)C2=C1c1c(n(CCO)c3ccc(OCc4ccccc4)cc13)C1Cc3ccccc3N21 (stereo not drawn) [Compound 36]
% Protection at 10 μM (Cortical neurons; drug 10 μM 24 h pre-treatment): 9%
survival (CGNs [1]; 300 nM drug, cisplatin): 80%
IC50 (CGNs [1]; cisplatin induced apoptosis in CGNs): 100 nM
protection of cancer cells from cisplatin induced apoptosis [2]: did not protect

O=C1NCC2=C1N1c3ccccc3CC1c1c2c2ccccc2n1CCCO (stereo not drawn) [Compound 176]
formation of neuritic extensions [3]: induce the formation of neuritic extensions

O=C1NC(=O)c2c1c1c3ccccc3[nH]c1c1cc3ccccc3n21 [Compound 42]
% CGN Survival (CGNs [4]; drug 1 μM): 20.0%
% CGN Survival (CGNs [4]; drug 10 μM): 18.0%
inhibition at 10 µM (Caspase 3; Mus musculus): 50%
IC50 (CGNs [5]; Mus musculus, 120 h): 1000 nM
IC50 (CGNs [1]; Mus musculus, assayed 48 hours after final drug treatment): 3000 nM
IC50 (SCG neurons): 20000 nM
IC50 (CGNs [6]): 3000 nM

CCSCc1ccc2c(c1)c1c3c(c4c5cc(CSCC)ccc5n5c4c1n2[C@H]1C[C@](O)(C(=O)OC)[C@]5(C)O1)CNC3=O [CEP 1347, reference compound]
% Protection (Cortical neurons; drug at 0.3 μM, cisplatin): 32%
% CGN Survival (CGNs [4]; 300 nM, (250 nM in source)): 0 (250 nM) %
% CGN Survival (CGNs [4]; drug 1 μM): 1.8%
protection (CGNs [5]; concentrations below 300 nM): > 10%
% SHSY-5Y cell survival (SHSY-5Y cells): 12.5%
% CGN Survival (CGNs [7]; 300 nM, (250 nM in source)): 50.0 (250 nM) %
% CGN Survival (CGNs [7]; drug 100 nM): 0%
% CGN Survival (CGNs [7]; drug 1 μM): 7.0%
IC50 (CGNs [6]): 1000 nM
toxicity (CGNs [6]; higher doses): toxic at higher doses

O=C1C=C(c2c[nH]c3ccc(OCc4ccccc4)cc23)C(=O)N1 [Compound 64, 3-(1-H-5-benzyloxyindol-3-yl)-1H-pyrrole-2,5-dione]
% CGN Survival (CGNs [4]; drug 1 μM): 18.0%
% CGN Survival (CGNs [4]; drug 10 μM): 5.1%
inhibition of caspase 3 induction (Caspase 3; 10 μM): 33%
IC50 (CGNs [5]): 1000 nM
IC50 (CGNs [1]; assayed 48 hours after final drug treatment): 3000 nM
% CGN Survival (CGNs [7]; drug 100 nM): 0%
% CGN Survival (CGNs [7]; drug 1 μM): 4.0%
% CGN Survival (CGNs [7]; drug 10 μM): 32.5%

From patent US7129250B2, “Neuroprotective and anti-proliferative compounds” (Aegera Therapeutics Inc., priority 2000, dated 2006)
